From patent US20250064941A1, “SIGLEC LIGANDS, CONJUGATES, AND METHODS OF USE THEREOF” (Osprey Biopharmaceuticals, Inc., priority 2023, published 2025) come the findings set out here.

In test [1] the target is T1, mouse Siglec-2-Fc-Avi (CD22) (Mus musculus, UniProt P35329).
T1 construct: made in house
T1 sequence (P35329 22-708 limits assumed): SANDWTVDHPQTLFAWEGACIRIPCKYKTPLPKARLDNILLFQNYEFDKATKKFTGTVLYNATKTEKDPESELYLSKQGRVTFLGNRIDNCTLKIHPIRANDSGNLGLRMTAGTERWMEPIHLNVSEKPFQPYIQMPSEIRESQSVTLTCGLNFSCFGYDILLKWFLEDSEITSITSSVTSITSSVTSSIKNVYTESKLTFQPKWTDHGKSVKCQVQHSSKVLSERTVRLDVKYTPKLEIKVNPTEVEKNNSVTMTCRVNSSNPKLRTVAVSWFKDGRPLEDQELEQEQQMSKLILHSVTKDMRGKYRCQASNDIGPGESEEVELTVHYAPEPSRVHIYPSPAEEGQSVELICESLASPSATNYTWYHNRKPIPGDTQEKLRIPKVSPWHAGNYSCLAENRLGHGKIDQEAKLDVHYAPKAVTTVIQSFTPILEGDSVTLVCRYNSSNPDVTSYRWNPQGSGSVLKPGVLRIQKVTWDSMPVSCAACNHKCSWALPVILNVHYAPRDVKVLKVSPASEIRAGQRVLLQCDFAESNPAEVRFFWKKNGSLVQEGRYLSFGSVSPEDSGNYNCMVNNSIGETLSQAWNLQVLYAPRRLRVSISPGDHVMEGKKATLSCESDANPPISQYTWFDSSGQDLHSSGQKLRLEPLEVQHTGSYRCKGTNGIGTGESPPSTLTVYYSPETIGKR
The experiment in a line: SPR binding affinity to mouse CD22. To be noted: steady-state analysis. Summed up: (§1)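 Using a Biacore 8K, compounds were tested against biotinylated CD22 captured after sialidase treatment. The running buffer held 1% DMSO, corrected with a 0.5–2% DMSO series. Affinity was derived by steady-state analysis.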

The target in test [2] is T2, human Siglec-2/CD22 protein (Homo sapiens, UniProt P20273).
T2 construct: purchased Acro Biosystems SI2-H82E3
T2 sequence (P20273 20-847): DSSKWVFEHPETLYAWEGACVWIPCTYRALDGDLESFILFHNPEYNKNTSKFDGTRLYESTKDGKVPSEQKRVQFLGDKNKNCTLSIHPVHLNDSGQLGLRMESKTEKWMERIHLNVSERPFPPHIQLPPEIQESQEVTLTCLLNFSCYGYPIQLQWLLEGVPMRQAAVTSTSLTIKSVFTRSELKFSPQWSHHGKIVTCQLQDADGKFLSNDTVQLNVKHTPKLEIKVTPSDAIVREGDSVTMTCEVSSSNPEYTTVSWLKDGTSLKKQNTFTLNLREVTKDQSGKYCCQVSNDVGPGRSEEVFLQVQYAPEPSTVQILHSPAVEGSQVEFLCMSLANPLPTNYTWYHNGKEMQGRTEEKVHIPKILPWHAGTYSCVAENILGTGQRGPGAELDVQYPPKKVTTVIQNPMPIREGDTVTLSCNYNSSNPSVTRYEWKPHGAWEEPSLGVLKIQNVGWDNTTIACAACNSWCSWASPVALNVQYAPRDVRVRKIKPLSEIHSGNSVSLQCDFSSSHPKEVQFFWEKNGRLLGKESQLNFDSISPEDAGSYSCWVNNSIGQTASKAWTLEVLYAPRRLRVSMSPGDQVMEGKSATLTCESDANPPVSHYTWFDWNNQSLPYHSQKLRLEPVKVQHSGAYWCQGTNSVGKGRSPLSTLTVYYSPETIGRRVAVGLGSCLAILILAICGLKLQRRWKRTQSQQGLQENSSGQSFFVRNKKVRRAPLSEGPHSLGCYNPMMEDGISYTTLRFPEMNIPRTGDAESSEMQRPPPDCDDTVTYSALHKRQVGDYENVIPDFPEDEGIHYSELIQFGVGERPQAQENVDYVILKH
The test can be described thus: SPR binding affinity to human CD22. To be noted: steady-state analysis. A digest of the protocol: as §1

Another test has as its target cynomolgus Siglec-2/CD22 (Macaca fascicularis, UniProt A0A2K5WCZ6). The test can be described thus: biochemical. The format is binding. The following applies: SPR, steady-state analysis; read-out: Affinity cyno CD22. Summed up: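 Compound binding measured by steady-state SPR analysis, 120 s dissociation, in HEPES-NaCl-Tween buffer pH 7.5 containing 1% DMSO, DMSO solvent-corrected. Surface: cyno CD22, sialic acids first stripped by SialoExo for 4 h at 37° C., then amine-coupled onto CM5.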

Sequence of cynomolgus Siglec-2/CD22 (A0A2K5WCZ6 entry or part of it): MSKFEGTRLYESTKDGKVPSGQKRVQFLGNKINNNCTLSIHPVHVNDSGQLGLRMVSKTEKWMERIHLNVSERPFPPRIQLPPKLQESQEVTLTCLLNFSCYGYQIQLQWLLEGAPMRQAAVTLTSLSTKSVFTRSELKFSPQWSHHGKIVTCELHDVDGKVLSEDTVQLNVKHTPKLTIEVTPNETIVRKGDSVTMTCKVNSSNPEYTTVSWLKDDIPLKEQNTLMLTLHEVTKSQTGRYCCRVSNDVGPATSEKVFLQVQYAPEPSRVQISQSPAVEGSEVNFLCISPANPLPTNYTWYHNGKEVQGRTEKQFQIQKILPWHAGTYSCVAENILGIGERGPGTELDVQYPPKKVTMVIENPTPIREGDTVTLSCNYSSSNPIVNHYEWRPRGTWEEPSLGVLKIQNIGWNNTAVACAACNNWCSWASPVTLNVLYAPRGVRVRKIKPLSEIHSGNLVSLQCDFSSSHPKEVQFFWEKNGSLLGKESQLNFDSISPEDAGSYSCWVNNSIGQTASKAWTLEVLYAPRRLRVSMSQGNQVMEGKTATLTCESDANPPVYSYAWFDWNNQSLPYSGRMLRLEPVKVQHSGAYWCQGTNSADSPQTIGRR

As to `C#CCCCCCCO[C@]1(C(=O)O)C[C@H](O)[C@@H](NC(=O)CO)[C@H]([C@H](O)[C@H](O)CNC(=O)C(F)(F)c2ccccc2)O1` [Compound 42, (2R,4S,5R,6R)-6-((1R,2R)-3-(2,2-difluoro-2-phenylacetamido)-1,2-dihydroxypropyl)-4-hydroxy-5-(2-hydroxyacetamido)-2-(oct-7-yn-1-yloxy) tetrahydro-2H-pyran-2-carboxylic acid], the Kd was 1 to 10 µM in test [1], less than 1000 nM in test [2] and less than 1000 nM on cynomolgus Siglec-2/CD22.

In the case of `C#CCOCCCCCCS[C@]1(C(=O)O)C[C@H](O)[C@@H](NC(=O)CO)[C@H]([C@H](O)[C@H](O)CNC(=O)Cc2ccc(Cl)cc2)O1` [Compound 186, (2S,4S,5R,6R)-6-((1R,2R)-3-(2-(4-chlorophenyl)acetamido)-1,2-dihydroxypropyl)-4-hydroxy-5-(2-hydroxyacetamido)-2-((6-(prop-2-yn-1-yloxy)hexyl)thio)tetrahydro-2H-pyran-2-carboxylic acid], the Kd in test [1] is less than 1 µM; in test [2], less than 1000 nM; at cynomolgus Siglec-2/CD22, less than 1000 nM.

As for `C#CCOCCOCCO[C@]1(C(=O)O)C[C@H](O)[C@@H](NC(=O)CO)[C@H]([C@H](O)[C@H](O)CNC(=O)c2ccccc2O)O1` [Compound 28, (2R,4S,5R,6R)-6-((1R,2R)-1,2-dihydroxy-3-(2-hydroxybenzamido)propyl)-4-hydroxy-5-(2-hydroxyacetamido)-2-(2-(2-(prop-2-yn-1-yloxy)ethoxy)ethoxy)tetrahydro-2H-pyran-2-carboxylic acid], the figures for the Kd (in test [1]; in test [2]; on cynomolgus Siglec-2/CD22) were more than 10 µM, more than 10000 nM and more than 10000 nM, respectively.

`C#CCOCCOCCO[C@]1(C(=O)O)C[C@H](O)[C@@H](NC(=O)CO)[C@H]([C@@H](F)[C@H](O)CNC(=O)Cc2ccc(-c3ccccc3)cc2)O1` [Compound 32]: the Kd in test [1] is more than 10 µM; in test [2] it was more than 10000 nM; at cynomolgus Siglec-2/CD22, more than 10000 nM.

In the case of `C#CCOCCOCCO[C@]1(C(=O)O)C[C@H](O)[C@@H](NC(=O)CO)[C@H]([C@H](O)[C@H](O)CNC(=O)Cc2ccc(Cl)cc2)O1` [Compound 126, (2R,4S,5R,6R)-6-((1R,2R)-3-(2-(4-chlorophenyl)acetamido)-1,2-dihydroxypropyl)-4-hydroxy-5-(2-hydroxyacetamido)-2-(2-(2-(prop-2-yn-1-yloxy)ethoxy)ethoxy)tetrahydro-2H-pyran-2-carboxylic acid], the Kd in test [1] lay within 1 to 10 µM; in test [2] it was 1000 to 10000 nM; on cynomolgus Siglec-2/CD22, 1000 to 10000 nM.

For the molecule `C#CCOCCOCCO[C@]1(C(=O)O)C[C@H](O)[C@@H](NC(=O)CO)[C@H]([C@H](O)[C@H](O)CNC(=O)c2ccccc2Cl)O1` [Compound 27, (2R,4S,5R,6R)-6-((1R,2R)-3-(2-chlorobenzamido)-1,2-dihydroxypropyl)-4-hydroxy-5-(2-hydroxyacetamido)-2-(2-(2-(prop-2-yn-1-yloxy)ethoxy)ethoxy)tetrahydro-2H-pyran-2-carboxylic acid], the results for the Kd (in test [1]; in test [2]; on cynomolgus Siglec-2/CD22) were more than 10 µM, more than 10000 nM and more than 10000 nM, respectively.

In the case of `C#CCCOc1ccc(CO[C@]2(C(=O)O)C[C@H](O)[C@@H](NC(=O)CO)[C@H]([C@H](O)[C@H](O)CNC(=O)Cc3ccc4[nH]c(=O)[nH]c4c3)O2)cc1` [Compound 7, (2R,4S,5R,6R)-2-((4-(but-3-yn-1-yloxy)benzyl)oxy)-6-((1R,2R)-1,2-dihydroxy-3-(2-(2-oxo-2,3-dihydro-1H-benzo[d]imidazol-5-yl)acetamido)propyl)-4-hydroxy-5-(2-hydroxyacetamido)tetrahydro-2H-pyran-2-carboxylic acid], the Kd in test [1] is more than 10 µM; in test [2], 1000 to 10000 nM; on cynomolgus Siglec-2/CD22, more than 10000 nM.

On to `C#CCOCCCCCCO[C@]1(C(=O)O)C[C@H](O)[C@@H](NC(=O)COc2ccccc2)[C@H]([C@H](O)[C@H](O)CNC(=O)Cc2ccc(Cl)cc2)O1` [Compound 91, (2R,4S,5R,6R)-6-((1R,2R)-3-(2-(4-chlorophenyl)acetamido)-1,2-dihydroxypropyl)-4-hydroxy-5-(2-phenoxyacetamido)-2-((6-(prop-2-yn-1-yloxy)hexyl)oxy)tetrahydro-2H-pyran-2-carboxylic acid], for which the Kd is more than 10 µM in test [1], 1000 to 10000 nM in test [2] and less than 1000 nM at cynomolgus Siglec-2/CD22.

For `C#CCCOc1ccc(CO[C@]2(C(=O)O)C[C@H](O)[C@@H](NC(=O)CO)[C@H]([C@H](O)[C@H](O)CNC(=O)C(C)(O)c3ccccc3)O2)cc1` (stereo partly drawn) [Compound 169, (2R,4S,5R,6R)-2-((4-(but-3-yn-1-yloxy)benzyl)oxy)-6-((1R,2R)-1,2-dihydroxy-3-(2-hydroxy-2-phenylpropanamido)propyl)-4-hydroxy-5-(2-hydroxyacetamido)tetrahydro-2H-pyran-2-carboxylic acid], the figures for the Kd (in test [1]; in test [2]; on cynomolgus Siglec-2/CD22) were more than 10 µM, 1000 to 10000 nM and 1000 to 10000 nM, respectively.

Consider `C#CCOCCCCCCO[C@]1(C(=O)O)C[C@H](O)[C@@H](NC(=O)CO)[C@H]([C@H](O)[C@H](O)CNC(=O)Cc2cccc(O)c2)O1` [Compound 144, (2R,4S,5R,6R)-6-((1R,2R)-1,2-dihydroxy-3-(2-(3-hydroxyphenyl)acetamido)propyl)-4-hydroxy-5-(2-hydroxyacetamido)-2-((6-(prop-2-yn-1-yloxy)hexyl)oxy)tetrahydro-2H-pyran-2-carboxylic acid], for which the figures for the Kd (in test [1]; in test [2]; on cynomolgus Siglec-2/CD22) were 1 to 10 µM, 1000 to 10000 nM and less than 1000 nM, respectively.

Take `C#CCOc1ccc(CO[C@]2(C(=O)O)C[C@H](O)[C@@H](NC(=O)CO)[C@H]([C@H](O)[C@H](O)CNC(=O)Cc3ccc(-c4ccc(O)cc4)cc3C)O2)cc1` [Compound 56, (2R,4S,5R,6R)-6-((1R,2R)-1,2-dihydroxy-3-(2-(4′-hydroxy-3-methyl-[1,1′-biphenyl]-4-yl)acetamido)propyl)-4-hydroxy-5-(2-hydroxyacetamido)-2-((4-(prop-2-yn-1-yloxy)benzyl)oxy)tetrahydro-2H-pyran-2-carboxylic acid]: the values for the Kd (in test [1]; in test [2]; at cynomolgus Siglec-2/CD22) were less than 1 µM, less than 1000 nM and 1000 to 10000 nM, respectively.

Regarding `C#CCNc1c(NCCCCCCO[C@]2(C(=O)O)C[C@H](O)[C@@H](NC(N)=O)[C@H]([C@H](O)[C@H](O)CNC(=O)Cc3ccc(-c4ccccc4)cc3)O2)c(=O)c1=O` [Compound 224, (2R,4S,5R,6R)-6-((1R,2R)-3-(2-([1,1′-biphenyl]-4-yl)acetamido)-1,2-dihydroxypropyl)-2-((6-((3,4-dioxo-2-(prop-2-yn-1-ylamino)cyclobut-1-en-1-yl)amino)hexyl)oxy)-4-hydroxy-5-ureidotetrahydro-2H-pyran-2-carboxylic acid], the Kd in test [1] is less than 1 µM; in test [2], less than 1000 nM; on cynomolgus Siglec-2/CD22, less than 1000 nM.

Regarding `CCCCCCC[C@]1(C(=O)O)C[C@H](O)[C@@H](NC(=O)CO)[C@H]([C@H](O)[C@H](O)CNC(=O)Cc2ccc(Cl)cc2)O1` [Compound 206, (2R,4S,5R,6R)-6-((1R,2R)-3-(2-(4-chlorophenyl)acetamido)-1,2-dihydroxypropyl)-2-heptyl-4-hydroxy-5-(2-hydroxyacetamido)tetrahydro-2H-pyran-2-carboxylic acid], the values for the Kd (in test [1]; in test [2]; at cynomolgus Siglec-2/CD22) were 1 to 10 µM, less than 1000 nM and less than 1000 nM, respectively.
